In ChEMBL document CHEMBL5214991, “Discovery of 4-methyl-3-(pyridin-2-ylamino)benzamide derivatives as C-Abl inhibitors with potential neuroprotective effect” (Bioorg Med Chem, 2022):
Calls of active or inactive are those of the source. The rule behind the calls is not given here.

Legend:
[1] = Cytotoxicity against human SH-SY5Y cells incubated for 48 hrs and measured by MTT assay; format: toxicity, cell-based
[2] = Cytotoxicity against rat H9c2 cells incubated for 48 hrs and measured by MTT assay; format: toxicity, cell-based
[3] = Cytotoxicity against HEK293 cells incubated for 48 hrs and measured by MTT assay; format: toxicity, cell-based; settings: human
[4] = Cytotoxicity against human L02 cells incubated for 48 hrs and measured by MTT assay; format: toxicity, cell-based
SH-SY5Y [5] = test: Neuroprotective activity against MPP+-induced cell death in human SH-SY5Y cells assessed as increase in cell viability at 0.08 to 20 uM measured after 48 hrs by propidium iodide staining method; format: functional, cell-based; settings: dose 0.08-20 µM
SH-SY5Y [6] = test: Neuroprotective activity against MPP+-induced cell death in human SH-SY5Y cells assessed as reduction in apoptosis at 1.25 to 5 uM measured after 48 hrs by propidium iodide staining method; format: functional, cell-based; settings: dose 1.25-5 µM
[7] = AUC (0 to t) in male Sprague-Dawley rat at 5 mg/kg, iv measured by LC-MS/MS analysis; format: ADME, organism-based; set-up: dose 5 mg/kg, route iv; settings: in vivo
[8] = AUC (0 to infinity) in male Sprague-Dawley rat at 5 mg/kg, iv measured by LC-MS/MS analysis; format: ADME, organism-based; set-up: time infinity, dose 5 mg/kg, route iv; settings: in vivo
[9] = MRT (0 to t) in male Sprague-Dawley rat at 5 mg/kg, iv measured by LC-MS/MS analysis; format: ADME, organism-based; settings: in vivo
[10] = MRT (0 to infinity) in male Sprague-Dawley rat at 5 mg/kg, iv measured by LC-MS/MS analysis; format: ADME, organism-based; settings: in vivo
[11] = Half-life in male Sprague-Dawley rat at 5 mg/kg, iv measured by LC-MS/MS analysis; format: ADME, organism-based; settings: in vivo
[12] = Clearance in male Sprague-Dawley rat at 5 mg/kg, iv measured by LC-MS/MS analysis; format: ADME, organism-based; settings: in vivo
[13] = Volume of distribution at steady state in male Sprague-Dawley rat at 5 mg/kg, iv measured by LC-MS/MS analysis; format: ADME, organism-based; settings: in vivo, read-out: Vdss
[14] = AUC (0 to t) in male Sprague-Dawley rat at 20 mg/kg, po measured by LC-MS/MS analysis; format: ADME, organism-based; set-up: dose 20 mg/kg, route po; settings: in vivo
[15] = AUC (0 to infinity) in male Sprague-Dawley rat at 20 mg/kg, po measured by LC-MS/MS analysis; format: ADME, organism-based; set-up: time infinity, dose 20 mg/kg, route po; settings: in vivo
[16] = MRT (0 to t) in male Sprague-Dawley rat at 20 mg/kg, po measured by LC-MS/MS analysis; format: ADME, organism-based; settings: in vivo
[17] = MRT (0 to infinity) in male Sprague-Dawley rat at 20 mg/kg, po measured by LC-MS/MS analysis; format: ADME, organism-based; settings: in vivo
[18] = Half-life in male Sprague-Dawley rat at 20 mg/kg, po measured by LC-MS/MS analysis; format: ADME, organism-based; settings: in vivo
[19] = Tmax in male Sprague-Dawley rat at 20 mg/kg, po measured by LC-MS/MS analysis; format: ADME, organism-based; settings: in vivo
[20] = Cmax in male Sprague-Dawley rat at 20 mg/kg, po measured by LC-MS/MS analysis; format: ADME, organism-based; set-up: dose 20 mg/kg, route po; settings: in vivo
[21] = Oral bioavailability in male Sprague-Dawley rat at 20 mg/kg measured by LC-MS/MS analysis; format: ADME, organism-based; settings: in vivo
[22] = Ratio of drug concentration in brain to plasma in male Sprague-Dawley rat at […], iv measured by LC-MS/MS analysis; format: ADME, organism-based; settings: dose 5 mg/kg, read-out: BPR

bioavailability [21] | SMILES | IC50 at 48 h [1] | IC50 at 48 h [2] | IC50 at 48 h [3] | IC50 at 48 h [4] | Activity (SH-SY5Y [5]) | further results
47.6% | Cc1ccc(C(=O)Nc2cc(-c3cnn(C)c3)cc(C(F)(F)F)c2)cc1Nc1cc(-c2cccnc2)ccn1 | > 80 µM | > 80 µM | > 80 µM | > 80 µM | Active | Activity (SH-SY5Y [6]): Active; AUC(0-t) [7]: 5120 ng·h/mL; AUC(0-inf) [8]: 5200 ng·h/mL; MRT last [9]: 5.29 h; MRT inf [10]: 5.29 h; half-life [11]: 3.62 h; clearance [12]: 17.7 mL/min/kg; Vd [13]: 5.36 L/kg; AUC(0-t) [14]: 9890 ng·h/mL; AUC(0-inf) [15]: 9900 ng·h/mL; MRT last [16]: 5.9 h; MRT inf [17]: 5.93 h; half-life [18]: 3.54 h; Tmax [19]: 2.33 h; Cmax [20]: 1380 ng/mL; Kp [22]: 4
 | Cc1cn(-c2cc(NC(=O)c3ccc(C)c(Nc4cc(-c5cccnc5)ccn4)c3)cc(C(F)(F)F)c2)cn1 | > 80 µM | > 80 µM | > 80 µM | > 80 µM | Active | 
 | Cc1ccc(C(=O)Nc2ccc(CN3CCN(C)CC3)c(C(F)(F)F)c2)cc1Nc1cc(-c2cccnc2)ccn1 | 19 µM | 9.12 µM | 14 µM | 37.4 µM | Active | 
 | Cc1ccc(C(=O)Nc2ccc(CN3CCN(C)CC3)c(C(F)(F)F)c2)cc1Nc1cc(-c2cncnc2)ccn1 | 12 µM | 16.7 µM | 17.1 µM | 30.1 µM | Active | 
27.1% | Cc1cn(-c2cc(NC(=O)c3ccc(C)c(Nc4nccc(-c5cccnc5)n4)c3)cc(C(F)(F)F)c2)cn1 [NILOTINIB] | 38.5 µM | 21.3 µM | 8.4 µM | 40.4 µM | Active | 
 | Cc1ccc(C(=O)Nc2cc(-c3cnn(C)c3)cc(C(F)(F)F)c2)cc1Nc1cc(-c2cncnc2)ccn1 | > 80 µM | > 80 µM | > 80 µM | > 80 µM | Active | 
